From PubChem BioAssay AID1259407 (Chemical Carcinogenesis Research Information System (CCRIS), 2018) come the findings set out here.

Active and inactive are the calls of the source. How the calls were made is not given here.

For this data set, the system named is CCRIS mutagenicity, Ames/micronucleus/aberration tests. As to the kind of experiment: CCRIS mutagenicity studies.
[1] abbreviates: Test System: AMES SALMONELLA TYPHIMURIUM, Strain/Indicator: TA98, Metabolic Activation: NONE, Method: PREINCUBATION
[2] abbreviates: Test System: AMES SALMONELLA TYPHIMURIUM, Strain/Indicator: TA100, Metabolic Activation: NONE, Method: PREINCUBATION
Setting [3] is: Test System: AMES SALMONELLA TYPHIMURIUM, Strain/Indicator: TA98, Metabolic Activation: NONE, Method: STANDARD PLATE.
Where [4] appears, read: Test System: AMES SALMONELLA TYPHIMURIUM, Strain/Indicator: TA1535, Metabolic Activation: NONE, Method: STANDARD PLATE.
Setting [5] is: Test System: MOUSE LYMPHOMA, Strain/Indicator: L5178Y (TK+/TK-), Metabolic Activation: NONE, Method: SUSPENSION/PLATE.

Take `O[C@@H]1[C@H]2O[C@H]2c2c(ccc3cc4ccc5ccccc5c4nc23)[C@H]1O`: the mutagenic call reads like this: under setting [1], “active; positive”; under setting [2], “active; positive”; (Test System: CHINESE HAMSTER V-79, Strain/Indicator: V-79/8-AZAGUANINE, Metabolic Activation: NONE, Method: STANDARD PLATE) “active; positive”.

For the compound `C[C@H]1C(=O)O[C@@H]2CCN3CC=C(COC(=O)[C@](C)(O)[C@]1(C)O)[C@H]23`, the mutagenic call was “inactive; negative” (Test System: AMES SALMONELLA TYPHIMURIUM, Strain/Indicator: TA100, Metabolic Activation: HAMSTER, LIVER, S-9, PCB, Method: PREINCUBATION); “inactive; negative” (Test System: AMES SALMONELLA TYPHIMURIUM, Strain/Indicator: TA100, Metabolic Activation: RAT, LIVER, S-9, PCB, Method: PREINCUBATION); “inactive; negative” (Test System: AMES SALMONELLA TYPHIMURIUM, Strain/Indicator: TA100, Metabolic Activation: RAT, LIVER, S-9, SODIUM PHENOBARBITAL AND BETA-NAPHTHOFLAVONE, Method: PREINCUBATION); “active; positive” (Test System: MOUSE LYMPHOMA, Strain/Indicator: L5178Y (TK+/TK-), Metabolic Activation: NONE, Method: MICROWELL); “active; positive” (Test System: MOUSE LYMPHOMA, Strain/Indicator: L5178Y (TK+/TK-), Metabolic Activation: S-9, Method: MICROWELL); “active; positive” (Test System: UDS HAMSTER HEPATOCYTES, Strain/Indicator: THY INCORP, Metabolic Activation: NONE, Method: AUTORADIOGRAPHY). In addition, the mutagenic call (Test System: UDS MOUSE HEPATOCYTES, Strain/Indicator: THY INCORP, Metabolic Activation: NONE, Method: AUTORADIOGRAPHY) was “active; positive” and the mutagenic call (Test System: UDS RAT HEPATOCYTES, Strain/Indicator: THY INCORP, Metabolic Activation: NONE, Method: AUTORADIOGRAPHY) was “active; positive”.

Turning to `Nc1c(Cl)cc([N+](=O)[O-])cc1[N+](=O)[O-]`, the mutagenic call is “active; positive (structural changes); authors report equivocal results for ploidy chang” (End Point: IN VITRO CHROMOSOMAL ABERRATIONS, Test System: CHL CELLS, Metabolic Activation: RAT, LIVER, S-9, SODIUM PHENOBARBITAL AND 5,6-BENZOFLAVONE); “active; positive” under setting [1]; “active; positive” (Test System: AMES SALMONELLA TYPHIMURIUM, Strain/Indicator: TA98, Metabolic Activation: RAT, LIVER, S-9, KANECHLOR 500, Method: PREINCUBATION); “active; positive” (Test System: AMES SALMONELLA TYPHIMURIUM, Strain/Indicator: TA98, Metabolic Activation: RAT, LIVER, S-9, PHENOBARBITAL AND BETA-NAPHTHOFLAVONE, Method: PREINCUBATION); “active; positive” under setting [2]; “active; positive” (Test System: AMES SALMONELLA TYPHIMURIUM, Strain/Indicator: TA100, Metabolic Activation: RAT, LIVER, S-9, KANECHLOR 500, Method: PREINCUBATION). The mutagenic call (Test System: AMES SALMONELLA TYPHIMURIUM, Strain/Indicator: TA100, Metabolic Activation: RAT, LIVER, S-9, PHENOBARBITAL AND BETA-NAPHTHOFLAVONE, Method: PREINCUBATION) was “active; positive”.

Regarding `ClC[C@@]1(C(Cl)Cl)C2[C@@H](Cl)[C@H](Cl)C1(C(Cl)Cl)[C@@H](Cl)[C@@H]2Cl`, the mutagenic call under setting [2] was “inactive; negative”.

Regarding `CCC12OC1(C(=O)OC)C(=O)NC2(C)O` (stereo not given), the mutagenic call (Test System: AMES SALMONELLA TYPHIMURIUM, Strain/Indicator: TA98, Metabolic Activation: NONE, Method: DISK ASSAY) was “inactive; negative”; the mutagenic call under setting [3] is “inactive; negative”; the mutagenic call (Test System: AMES SALMONELLA TYPHIMURIUM, Strain/Indicator: TA98, Metabolic Activation: RAT, LIVER, S-9, AROCLOR 1254, Method: DISK ASSAY) is “inactive; negative”; the mutagenic call (Test System: AMES SALMONELLA TYPHIMURIUM, Strain/Indicator: TA98, Metabolic Activation: RAT, LIVER, S-9, AROCLOR 1254, Method: STANDARD PLATE) was “active; positive”.

As to `[N-]=[N+]=NCCO`, the mutagenic call under setting [4] was “active; positive”.

Turning to `CCN(CC)CCNc1ccc(C)c2sc3ccccc3c(=O)c12`, the mutagenic call runs as follows: under setting [3], “inactive; negative”; (Test System: AMES SALMONELLA TYPHIMURIUM, Strain/Indicator: TA98, Metabolic Activation: RAT, LIVER, S-9, AROCLOR 1254 OR PHENOBARBITOL, Method: STANDARD PLATE) “inactive; negative”; (Test System: AMES SALMONELLA TYPHIMURIUM, Strain/Indicator: TA100, Metabolic Activation: NONE, Method: STANDARD PLATE) “inactive; negative”; (Test System: AMES SALMONELLA TYPHIMURIUM, Strain/Indicator: TA100, Metabolic Activation: RAT, LIVER, S-9, AROCLOR 1254 OR PHENOBARBITOL, Method: STANDARD PLATE) “inactive; negative”; under setting [4], “inactive; negative”; (Test System: AMES SALMONELLA TYPHIMURIUM, Strain/Indicator: TA1535, Metabolic Activation: RAT, LIVER, S-9, AROCLOR 1254 OR PHENOBARBITOL, Method: STANDARD PLATE) “active; positive”. The mutagenic call was “active; positive” (Test System: AMES SALMONELLA TYPHIMURIUM, Strain/Indicator: TA1537, Metabolic Activation: NONE, Method: STANDARD PLATE); “active; positive” (Test System: AMES SALMONELLA TYPHIMURIUM, Strain/Indicator: TA1537, Metabolic Activation: RAT, LIVER, S-9, AROCLOR 1254 OR PHENOBARBITOL, Method: STANDARD PLATE); “inactive; negative” (Test System: AMES SALMONELLA TYPHIMURIUM, Strain/Indicator: TA1538, Metabolic Activation: NONE, Method: STANDARD PLATE); “inactive; negative” (Test System: AMES SALMONELLA TYPHIMURIUM, Strain/Indicator: TA1538, Metabolic Activation: RAT, LIVER, S-9, AROCLOR 1254 OR PHENOBARBITOL, Method: STANDARD PLATE); “active; positive” under setting [5].

Consider `O=[N+]([O-])C(Br)(Br)Br`, for which the mutagenic call under setting [1] is “inactive; negative”; the mutagenic call (Test System: AMES SALMONELLA TYPHIMURIUM, Strain/Indicator: TA100, Metabolic Activation: HAMSTER, LIVER, S-9, AROCLOR 1254 (5%), Method: PREINCUBATION) is “inactive; negative”; the mutagenic call (Test System: AMES SALMONELLA TYPHIMURIUM, Strain/Indicator: TA100, Metabolic Activation: HAMSTER, LIVER, S-9, AROCLOR 1254 (10 OR 30%), Method: PREINCUBATION) was “inactive; negative”; the mutagenic call (Test System: AMES SALMONELLA TYPHIMURIUM, Strain/Indicator: TA100, Metabolic Activation: HAMSTER, LIVER, S-9, AROCLOR 1254 (30%), Method: PREINCUBATION) is “active; positive”; the mutagenic call under setting [2] is “inactive; negative”; the mutagenic call (Test System: AMES SALMONELLA TYPHIMURIUM, Strain/Indicator: TA100, Metabolic Activation: RAT, LIVER, S-9, AROCLOR 1254 (5%), Method: PREINCUBATION) was “inactive; negative”. The mutagenic call runs as follows: (Test System: AMES SALMONELLA TYPHIMURIUM, Strain/Indicator: TA100, Metabolic Activation: RAT, LIVER, S-9, AROCLOR 1254 (10%), Method: PREINCUBATION) “inactive; negative”; (Test System: AMES SALMONELLA TYPHIMURIUM, Strain/Indicator: TA1535, Metabolic Activation: RAT, LIVER, S-9, AROCLOR 1254 (5%), Method: PREINCUBATION) “inactive; negative”; (Test System: Ames Salmonella typhimurium, Strain/Indicator: RSJ100, Metabolic Activation: None, Method: Standard plate) “inactive; negative”; (Test System: Ames Salmonella typhimurium, Strain/Indicator: RSJ 100, Metabolic Activation: Rat, Liver, S-9, Aroclor, Method: Standard plate) “inactive; negative”; (Test System: Ames Salmonella typhimurium, Strain/Indicator: RSJ100, Metabolic Activation: Rat, Liver, S-9, Aroclor, Method: Standard plate) “inactive; negative”; (Test System: Ames Salmonella typhimurium, Strain/Indicator: TA98, Metabolic Activation: None, Method: Standard plate) “inactive; negative”. Further, the mutagenic call is, setting by setting: (Test System: Ames Salmonella typhimurium, Strain/Indicator: TA98, Metabolic Activation: Rat, Liver, S-9, Aroclor, Method: Standard plate) “inactive; negative”; (Test System: Ames Salmonella typhimurium, Strain/Indicator: TA100, Metabolic Activation: None, Method: Standard plate) “inactive; negative”; (Test System: Ames Salmonella typhimurium, Strain/Indicator: TA100, Metabolic Activation: Rat, Liver, S-9, Aroclor, Method: Standard plate) “inactive; negative”; (Test System: Ames Salmonella typhimurium, Strain/Indicator: TA104, Metabolic Activation: None, Method: Standard plate) “inactive; negative”; (Test System: Ames Salmonella typhimurium, Strain/Indicator: TA104, Metabolic Activation: Rat, Liver, S-9, Aroclor, Method: Standard plate) “inactive; negative”; (Test System: Ames Salmonella typhimurium, Strain/Indicator: TPT100, Metabolic Activation: None, Method: Standard plate) “inactive; negative”.

With `Cc1c(O)c(=O)ccn1C`, the mutagenic call is, setting by setting: under setting [5], “active; positive. reevaluation of results: positive”; (Test System: MOUSE LYMPHOMA, Strain/Indicator: L5178Y (TK+/TK-), Metabolic Activation: RAT, LIVER, S-9, AROCLOR 1254, Method: SUSPENSION/PLATE) “active; positive. reevaluation of results: equivocal”.
